Reference: the NIST ThermoML archive (doi:10.1021/acs.jced.5b00105)
± gives the expanded uncertainty stated by the source.

Experiments:
[1] = xn = mol fraction of the nth substance listed; conditions: x2 = 0; for surface tension liquid-gas: Drop volume; for viscosity / mass density: 100 kPa, Liquid; for viscosity: Concentric cylinders viscometry; for mass density: Vibrating tube method
[2] = refractive index (Na D-line) (dimensionless); xn = mol fraction of the nth substance listed; conditions: 100 kPa, Liquid, x2 = 0
[3] = for surface tension liquid-gas: Drop volume; for viscosity / mass density: 100 kPa, Liquid; for viscosity: Concentric cylinders viscometry; for mass density: Vibrating tube method
[4] = refractive index (Na D-line) (dimensionless); conditions: 100 kPa, Liquid

Compound: CC(C)CC(C)(C)C [2,2,4-trimethylpentane] + CCCCC1CCCCC1
- surface tension liquid-gas ([1]; 293.15 K): 18.94 ± 0.24 mN/m
- viscosity ([1]; 293.15 K): 0.518 ± 0.083 mPa·s
- mass density ([1]; 293.15 K): 691.91 ± 0.19 kg/m3
- surface tension liquid-gas ([1]; 298.15 K): 18.39 ± 0.24 mN/m
- viscosity ([1]; 298.15 K): 0.493 ± 0.079 mPa·s
- mass density ([1]; 298.15 K): 687.82 ± 0.19 kg/m3
- surface tension liquid-gas ([1]; 303.15 K): 17.99 ± 0.24 mN/m
- viscosity ([1]; 303.15 K): 0.47 ± 0.075 mPa·s
- mass density ([1]; 303.15 K): 683.68 ± 0.19 kg/m3
- surface tension liquid-gas ([1]; 308.15 K): 17.58 ± 0.23 mN/m
- viscosity ([1]; 308.15 K): 0.449 ± 0.072 mPa·s
- mass density ([1]; 308.15 K): 679.51 ± 0.19 kg/m3
- viscosity ([1]; 313.15 K): 0.43 ± 0.069 mPa·s
- mass density ([1]; 313.15 K): 675.32 ± 0.19 kg/m3
- viscosity ([1]; 318.15 K): 0.414 ± 0.066 mPa·s
- mass density ([1]; 318.15 K): 671.05 ± 0.19 kg/m3
- viscosity ([1]; 323.15 K): 0.398 ± 0.064 mPa·s
- mass density ([1]; 323.15 K): 666.8 ± 0.2 kg/m3
- viscosity ([1]; 333.15 K): 0.371 ± 0.06 mPa·s
- mass density ([1]; 333.15 K): 658.2 ± 0.2 kg/m3
- viscosity ([1]; 343.15 K): 0.348 ± 0.056 mPa·s
- mass density ([1]; 343.15 K): 649.44 ± 0.2 kg/m3
- refractive index ([2]; 293.15 K): 1.3921 ± 0.0015
- refractive index ([2]; 298.15 K): 1.3886 ± 0.0015
- refractive index ([2]; 303.15 K): 1.3876 ± 0.0015
- refractive index ([2]; 308.15 K): 1.3848 ± 0.0015
- refractive index ([2]; 313.15 K): 1.3833 ± 0.0015
- refractive index ([2]; 318.15 K): 1.3785 ± 0.0015
- refractive index ([2]; 323.15 K): 1.376 ± 0.0015

Compound: CCCCC1CCCCC1 [butylcyclohexane]
- surface tension liquid-gas ([3]; 293.15 K): 26.81 ± 0.25 mN/m
- viscosity ([3]; 293.15 K): 1.304 ± 0.21 mPa·s
- mass density ([3]; 293.15 K): 799.37 ± 0.15 kg/m3
- surface tension liquid-gas ([3]; 298.15 K): 25.87 ± 0.24 mN/m
- viscosity ([3]; 298.15 K): 1.199 ± 0.19 mPa·s
- mass density ([3]; 298.15 K): 795.63 ± 0.15 kg/m3
- surface tension liquid-gas ([3]; 303.15 K): 25.49 ± 0.24 mN/m
- viscosity ([3]; 303.15 K): 1.109 ± 0.18 mPa·s
- mass density ([3]; 303.15 K): 791.88 ± 0.15 kg/m3
- surface tension liquid-gas ([3]; 308.15 K): 24.73 ± 0.24 mN/m
- viscosity ([3]; 308.15 K): 1.031 ± 0.17 mPa·s
- mass density ([3]; 308.15 K): 788.12 ± 0.15 kg/m3
- viscosity ([3]; 313.15 K): 0.961 ± 0.15 mPa·s
- mass density ([3]; 313.15 K): 784.35 ± 0.15 kg/m3
- viscosity ([3]; 318.15 K): 0.9 ± 0.14 mPa·s
- mass density ([3]; 318.15 K): 780.49 ± 0.15 kg/m3
- viscosity ([3]; 323.15 K): 0.844 ± 0.14 mPa·s
- mass density ([3]; 323.15 K): 776.7 ± 0.16 kg/m3
- viscosity ([3]; 333.15 K): 0.749 ± 0.12 mPa·s
- mass density ([3]; 333.15 K): 769.09 ± 0.16 kg/m3
- viscosity ([3]; 343.15 K): 0.671 ± 0.11 mPa·s
- mass density ([3]; 343.15 K): 761.43 ± 0.16 kg/m3
- refractive index ([4]; 293.15 K): 1.4403 ± 0.0015
- refractive index ([4]; 298.15 K): 1.4377 ± 0.0015
- refractive index ([4]; 303.15 K): 1.4355 ± 0.0015
- refractive index ([4]; 308.15 K): 1.4333 ± 0.0015
- refractive index ([4]; 313.15 K): 1.4314 ± 0.0015
- refractive index ([4]; 318.15 K): 1.429 ± 0.0015
- refractive index ([4]; 323.15 K): 1.4268 ± 0.0015

Compound: CC(C)CC(C)(C)C [2,2,4-trimethylpentane] + CC1CCCCC1
- surface tension liquid-gas ([1]; 293.15 K): 18.94 ± 0.24 mN/m
- viscosity ([1]; 293.15 K): 0.518 ± 0.083 mPa·s
- mass density ([1]; 293.15 K): 691.91 ± 0.19 kg/m3
- surface tension liquid-gas ([1]; 298.15 K): 18.39 ± 0.24 mN/m
- viscosity ([1]; 298.15 K): 0.493 ± 0.079 mPa·s
- mass density ([1]; 298.15 K): 687.82 ± 0.19 kg/m3
- surface tension liquid-gas ([1]; 303.15 K): 17.99 ± 0.24 mN/m
- viscosity ([1]; 303.15 K): 0.47 ± 0.075 mPa·s
- mass density ([1]; 303.15 K): 683.68 ± 0.19 kg/m3
- surface tension liquid-gas ([1]; 308.15 K): 17.58 ± 0.23 mN/m
- viscosity ([1]; 308.15 K): 0.449 ± 0.072 mPa·s
- mass density ([1]; 308.15 K): 679.51 ± 0.19 kg/m3
- viscosity ([1]; 313.15 K): 0.43 ± 0.069 mPa·s
- mass density ([1]; 313.15 K): 675.32 ± 0.19 kg/m3
- viscosity ([1]; 318.15 K): 0.414 ± 0.066 mPa·s
- mass density ([1]; 318.15 K): 671.05 ± 0.19 kg/m3
- viscosity ([1]; 323.15 K): 0.398 ± 0.064 mPa·s
- mass density ([1]; 323.15 K): 666.8 ± 0.2 kg/m3
- viscosity ([1]; 333.15 K): 0.371 ± 0.06 mPa·s
- mass density ([1]; 333.15 K): 658.2 ± 0.2 kg/m3
- viscosity ([1]; 343.15 K): 0.348 ± 0.056 mPa·s
- mass density ([1]; 343.15 K): 649.44 ± 0.2 kg/m3
- refractive index ([2]; 293.15 K): 1.3921 ± 0.0015
- refractive index ([2]; 298.15 K): 1.3886 ± 0.0015
- refractive index ([2]; 303.15 K): 1.3876 ± 0.0015
- refractive index ([2]; 308.15 K): 1.3848 ± 0.0015
- refractive index ([2]; 313.15 K): 1.3833 ± 0.0015
- refractive index ([2]; 318.15 K): 1.3785 ± 0.0015
- refractive index ([2]; 323.15 K): 1.376 ± 0.0015

Compound: CCC1CCCCC1 [ethylcyclohexane]
- surface tension liquid-gas ([3]; 293.15 K): 25.47 ± 0.24 mN/m
- viscosity ([3]; 293.15 K): 0.848 ± 0.14 mPa·s
- mass density ([3]; 293.15 K): 787.98 ± 0.15 kg/m3
- surface tension liquid-gas ([3]; 298.15 K): 24.76 ± 0.24 mN/m
- viscosity ([3]; 298.15 K): 0.793 ± 0.13 mPa·s
- mass density ([3]; 298.15 K): 783.97 ± 0.15 kg/m3
- surface tension liquid-gas ([3]; 303.15 K): 24.55 ± 0.24 mN/m
- viscosity ([3]; 303.15 K): 0.745 ± 0.12 mPa·s
- mass density ([3]; 303.15 K): 779.93 ± 0.15 kg/m3
- surface tension liquid-gas ([3]; 308.15 K): 23.74 ± 0.24 mN/m
- viscosity ([3]; 308.15 K): 0.702 ± 0.11 mPa·s
- mass density ([3]; 308.15 K): 775.88 ± 0.15 kg/m3
- viscosity ([3]; 313.15 K): 0.663 ± 0.11 mPa·s
- mass density ([3]; 313.15 K): 771.82 ± 0.15 kg/m3
- viscosity ([3]; 318.15 K): 0.628 ± 0.1 mPa·s
- mass density ([3]; 318.15 K): 767.69 ± 0.15 kg/m3
- viscosity ([3]; 323.15 K): 0.597 ± 0.096 mPa·s
- mass density ([3]; 323.15 K): 763.59 ± 0.15 kg/m3
- viscosity ([3]; 333.15 K): 0.541 ± 0.087 mPa·s
- mass density ([3]; 333.15 K): 755.35 ± 0.15 kg/m3
- viscosity ([3]; 343.15 K): 0.496 ± 0.08 mPa·s
- mass density ([3]; 343.15 K): 747.03 ± 0.16 kg/m3
- refractive index ([4]; 293.15 K): 1.4337 ± 0.0015
- refractive index ([4]; 298.15 K): 1.4301 ± 0.0015
- refractive index ([4]; 303.15 K): 1.4295 ± 0.0015
- refractive index ([4]; 308.15 K): 1.4278 ± 0.0015
- refractive index ([4]; 313.15 K): 1.4259 ± 0.0015
- refractive index ([4]; 318.15 K): 1.4204 ± 0.0015
- refractive index ([4]; 323.15 K): 1.4187 ± 0.0015
